From patent publication US20040018259A1, “Use of at least one extract of a plant of the genus lannea in a cosmetic or dermopharmaceutical composition” (priority 1999, published 2004) come the findings set out here.

Test [1] in a line: Anti-DPPH° test (anti-radical effect). To be noted: for level of leuco compound formed (in % in relation to the control): average of 2 tests. The text has this:
a) DPPH° Test DPPH (diphenyl picryl hydrazyl) is a stable, free, violet-colored radical which is modified in its leuco compound by the substances that trap the free radicals (=scavenger or bait effect). The result is expressed in leuco compound levels which are formed in the presence of the active agent (in % in relation to the control with no active principle).

The nature of test [2]: Anti-HO° test with deoxyribose (Fenton reaction) with EDTA. To be noted: for percentage inhibition of the hydroxylation rate: average of 2 tests. How it is done:
(§1) Anti-HO°-Test with Deoxyribose (Fenton Reaction) These tests evaluate the ability of an active substance to eliminate (“bait”) HO° produced by the Fenton reaction (H2O2 in the presence of iron). HO° can be exposed by deoxyribose. Deoxyribose is an essential compound of ADN which is oxidized and then fragmented by HO°. The oxidation product of deoxyribose is exposed by condensation with thiobarbituric acid (measurement of optical density at 532 nm). This test is carried out with and without EDTA in order to determine the ability of the extract to form active complex compounds with iron (“[…] effect”).

Test [3] in a line: Anti-anion superoxide test (hypoxanthine/xanthine oxidase) with luminol. In kind it is biochemical. As to conditions: for percentage inhibition, test with luminol: average of 2 tests. The text has this: (§2) *Anti-Anion Superoxide Effect (O2.^−) O2.^− is produced during the oxidizing stress through the introduction of an enzyme, xanthine oxidase (XOD), which degrades the excess hypoxanthine (HX) during an interruption in or disruption of the energy metabolism in living tissue. O2.^− is toxic, particularly because of its ability to form hydrogen peroxide (H2O2)—which in turn forms a source of HO^• through the Fenton reaction—either spontaneously or in the presence of Superoxid-Dismutase (SOD). The biochemical tests are carried out with HX in the presence of XOD and the O2.^− are exposed by luminol or a mixture of luminol and peroxidase, which exposes O2.^− and H2O2, or by a tetrazolium salt (NBT) which forms a red compound evaluated at 540 nm.

Test [4] can be described thus: Anti-anion superoxide test (hypoxanthine/xanthine oxidase) with luminol + microperoxidase. In kind it is biochemical. To be noted: for percentage inhibition, test with luminol + microperoxidase: average of 2 tests.
Text: as §2

Test [5] can be described thus: Anti-anion superoxide test (hypoxanthine/xanthine oxidase) with NBT. It is filed as biochemical. To be noted: for percentage inhibition, test with NBT: average of 2 tests.
Text: as §2

Test [6] can be described thus: Anti-HO° test with deoxyribose (Fenton reaction) without EDTA. To be noted: for percentage inhibition of the hydroxylation rate: average of 2 tests. The method, then: as §1
The next test has as its system human fibroblasts. The experiment in a line: Anti-UVA cytophotoprotection test on human fibroblasts. It is filed as cell-based. As to conditions: UV-A 15 J/cm^2. An excerpt: d) Anti-UVA-Cytophotoprotection Test on Human Fibroblasts
This in vitro test evaluates the ability of Lannea coromandelica extracts according to the invention to afford human fibroblasts cytophotoprotection against UV-A.
The UV-As are selected as a study model because they penetrate into the inner skin and introduce an oxidizing stress into the skin which is reflected in particular in a lipoperoxidation of the cytoplasmic membrane. The lipoperoxides formed split up into malonaldialdehydes (MDAs) which are responsible for the crosslinking of numerous biological molecules, such as proteins for example (enzyme inhibition), and nuclein bases (mutagenesis).
Fibroblasts are inoculated into a nutrient medium defined with calf foetus serum. The Lannea coromandelica extract was added 2 to 3 days after inoculation. After incubation for 2 to 3 days at 37° C./CO2=5%, the nutrient medium is replaced by a salt solution and the fibroblasts are exposed to a dose of UV-A (15 J/cm^2).
After the exposure, the MDA level in the salt solution floating on the surface is determined and the protein level in the fibroblasts is measured. The MDA level is determined by reaction to thiobarbituric acid while the protein levels are determined by the Bradford method.

Test [7] relates to clostridium hystoliticum collagenase. The experiment in a line: In tubo anticollagenase test (FALGPA substrate). In kind it is biochemical. How it is done:
b) In Tubo Anticollagenase Test
The tests are carried out with a clostridium hystoliticum collagenase and a synthetic chromogenic substrate: FALGPA. Incubation lasts 3O minutes at room temperature and optical density is measured at 324 nm. The inhibition test standard tested for comparison is cysteine.
The results are set out in Table X below which emphasizes the anticollagenase activity of the Lannea coromandelica extracts (results in percentage inhibition).

Test [8] deals with singlet oxygen on type I collagen. Kind of test: Anti-singlet oxygen effect on type I collagen (viscosity, riboflavin + UV-A). The text has this: Collagen is a dermal glycoprotein which is very sensitive to the activity of the reactive form of oxygen (or FRO). It was shown that singlet oxygen (O2^1) produces troublesome crosslinkings among the proteins.
The principle of this test is based on measurement of the viscosity of an aqueous solution of type I collagen in the presence of a photochemical O2^1-evolving system.
O2^1, which is produced by riboflavin in the presence of UV-A, causes the collagen to gel in the presence of glucose which is reflected in an increase in viscosity. This effect is inhibited by the molecules which expose O2^1, such as thiourea or aminoguanidine for example.
Viscosity is evaluated by measurement of the throughflow time through the capillary of a “Cannon Fenske” viscosimeter.

Another test relates to tyrosinase. Kind of test: In tubo tyrosinase inhibition test (L-DOPA, dopachromium DO at 475 nm). It is filed as biochemical. To be noted: extract concentration producing 50% inhibition of the enzyme activity. An excerpt:
In Tubo Tyrosinase Inhibition Test mixing of the L-DOPA with tyrosinase and the Lannea coromandelica extracts to be tested, recording of the DO at 475 nm of the dopachromium, calculation of the kinetics, then the CI50 (extract concentration which produces a 50% inhibition of the enzyme activity).

Test [9] deals with T1, elastase of the abdominal salivary gland (serine protease) (Sus scrofa, UniProt P00772). The experiment in a line: In tubo antielastase test, elastin connected with Congo red. In kind it is biochemical. The method, then:
(§3) The in tubo tests are carried out with an elastase of the abdominal salivary gland (serine protease) using two types of substrate: a synthetic color-forming (chromogenic) substrate and a natural substrate consisting of elastin connected with Congo red.
(§4) Incubation lasts 30 minutes at room temperature and coloration is measured at 410 nm and 520 nm.
(§5) The inhibition test standard tested for comparison is 1 antitrypsin.

For test [10], the target named is T1, elastase of the abdominal salivary gland (serine protease). Kind of test: In tubo antielastase test, synthetic chromogenic substrate. In kind it is biochemical. How it is done: as §3, §4, §5
The test system of a further test is B16 melanocytes. Kind of test: In vitro melanogenesis inhibition test on B16 melanocytes. To be noted: 0.3% dose. In kind it is cell-based. How it is done:
In Vitro Melanogenesis Inhibition Test on B16 Melanocytes inoculation of the melanocytes into a growth substrate, incubation for three days at 37° C., CO2=5%, introduction of the Lannea coromandelica extracts into a medium which activates melanogenesis, […]
spectrophotometric dosing of the proteins (co-called Bradford method) and the melanin (DO at 475 nm) into the homogenized melanocytes, calculation of an activity index which corresponds to the ratio (protein level/melanin level) for an optimal dose of extract.
It follows that the higher the index (>1), the greater the ability to inhibit melanogensis.

T1 sequence (P00772 27-266): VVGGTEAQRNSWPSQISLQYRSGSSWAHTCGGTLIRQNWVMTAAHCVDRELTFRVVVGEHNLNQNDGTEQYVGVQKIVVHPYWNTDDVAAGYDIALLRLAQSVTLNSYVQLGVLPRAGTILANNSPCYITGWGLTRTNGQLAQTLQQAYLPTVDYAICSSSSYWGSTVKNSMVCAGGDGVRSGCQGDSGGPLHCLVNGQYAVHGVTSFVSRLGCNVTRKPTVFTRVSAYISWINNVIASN

Consider `O=C1O[C@H]([C@@H](O)CO)C(O)=C1O` [Ascorbic acid], for which, in test [1], the “Cl50 anti-DPPH° test” value is recorded as 0.0013 % (wt./vol.). The “level of leuco compound formed (in % in relation to the control)” value came out at 49% in test [1] (dose 0.001% (wt./vol.)) and 75% in test [1] (dose 0.01% (wt./vol.)). In test [2], the “Cl50 Fenton reaction with EDTA” value is reported as 0.26 % (wt./vol.). Moreover, the “percentage inhibition of the hydroxylation rate” value turned out to be 45% in test [2] (dose 0.1% (wt./vol.)); 73% in [2] (dose 1% (wt./vol.)); 5% in [6] (dose 0.01% (wt./vol.)); 75% in [6] (dose 0.03% (wt./vol.)); 2% in [6] (dose 0.1% (wt./vol.)); 56% in test [6] (dose 1% (wt./vol.)). In addition, the “Cl50 test with luminol” value in [3] is reported as 0.0006 % (wt./vol.). Besides, the “percentage inhibition, test with luminol” value was 5% in test [3] (dose 0.0001% (wt./vol.)), 92% in test [3] (dose 0.001% (wt./vol.)) and 100% in test [3] (dose 0.01% (wt./vol.)). In test [4], the “Cl50 test with luminol + microperoxidase” value is 0.0058 % (wt./vol.). For the same compound, the “percentage inhibition, test with luminol + microperoxidase” value is given as 0% in test [4] (dose 0.001% (wt./vol.)) and 94% in [4] (dose 0.01% (wt./vol.)). The “Cl50 test with NBT” value in [5] is 0.5909 % (wt./vol.). For the same compound, the entries for the “percentage inhibition, test with NBT” value in test [5] (dose 0.01% (wt./vol.)), in test [5] (dose 0.1% (wt./vol.)) and in test [5] (dose I % (wt./vol.)) were 15%, 32% and 65%, respectively. The “Cl50 Fenton reaction without EDTA” value in [6] is reported as 0.9 % (wt./vol.).

Turning to Vitamin E, in the test on human fibroblasts (0.0003%), the “MDA level in % in relation to the irradiated control” value stood at 21% and the “Proteins in % in relation to the non-irradiated control” value was found to be 97%. Besides, in the test with human fibroblasts (0.001%), the “MDA level in % in relation to the irradiated control” value is reported as 8% and the “Proteins in % in relation to the non-irradiated control” value was 98%.

Consider `N[C@@H](CS)C(=O)O` [cysteine], for which, in [7], the Cl50 anticollagenase entry is recorded as “NB: Cl50 in % by wt./vol. of cysteine = 2.4%”.

In the case of `N=C(N)NN` [Aminoguanidine, aminoguanidine], the “Cl50 photoprotection of type I collagen” value in [8] is on record as 0.004 % (wt./vol.). For the same compound, the “photoprotective effect on type I collagen, percentage inhibition” value in [8] (dose 0.005% (wt./vol.)) is given as 57%; in test [8] (dose 0.015% (wt./vol.)), 75%.

For the compound `Oc1ccc(O)cc1` [Hydroquinone], in the test with tyrosinase, the “Cl50 in tubo tyrosinase inhibition” value is “Cl50 = 0.025% by wt./vol”.

“1α antitrypsin: inhibition test standard tested for comparison in the antielastase test”: the “Cl50 antielastase, elastin connected with Congo red” value in [9] is on record as “NB: Cl50 in % by wt./vol. for 1α antitrypsin = 0.04%”. Besides, in [10], the “Cl50 antielastase, synthetic substrate” value is listed as “NB: Cl50 in % by wt./vol. for 1α antitrypsin = 0.04%”.

Turning to `OC[C@H]1O[C@@H](Oc2ccc(O)cc2)[C@H](O)[C@@H](O)[C@@H]1O` [Arbutin], the “I = activity index on B16 melanocytes (protein level/melanin level)” value in the test with B16 melanocytes was “I = 3.14 (for the 0.3% dose)”.
